Measured values published in ChEMBL document CHEMBL4507317, “Data for DCP probe BAY-899” (2021).

Columns and labels:
[1] = target: Tyrosine-protein kinase ABL1 (Homo sapiens) (UniProt P00519); conditions: Compound concentration 1000.0 nM
[2] = target: Calcium/calmodulin-dependent protein kinase type 1B (Homo sapiens) (UniProt Q6P2M8); conditions: Compound concentration 1000.0 nM
[3] = target: Cyclin-dependent kinase 4 (Homo sapiens) (UniProt P11802); conditions: Compound concentration 1000.0 nM
[4] = target: Casein kinase II subunit alpha (Homo sapiens) (UniProt P68400); conditions: Compound concentration 1000.0 nM
[5] = target: Death-associated protein kinase 2 (Homo sapiens) (UniProt Q9UIK4); conditions: Compound concentration 1000.0 nM
[6] = target: Serine/threonine-protein kinase MRCK gamma (Homo sapiens) (UniProt Q6DT37); conditions: Compound concentration 1000.0 nM
[7] = target: Dual specificity tyrosine-phosphorylation-regulated kinase 1B (Homo sapiens) (UniProt Q9Y463); conditions: Compound concentration 1000.0 nM
[8] = tested on: Epidermal growth factor receptor (Homo sapiens), P00533 [G719C]; conditions: Compound concentration 1000.0 nM
[9] = target: Ephrin type-A receptor 8 (Homo sapiens) (UniProt P29322); conditions: Compound concentration 1000.0 nM
[10] = target: Mitogen-activated protein kinase 1 (Homo sapiens) (UniProt P28482); conditions: Compound concentration 1000.0 nM
[11] = target: Fibroblast growth factor receptor 3 (Homo sapiens) (UniProt P22607); conditions: Compound concentration 1000.0 nM
[12] = target: Receptor-type tyrosine-protein kinase FLT3 (Homo sapiens) (UniProt P36888); conditions: Compound concentration 1000.0 nM
[13] = target: Glycogen synthase kinase-3 beta (Homo sapiens) (UniProt P49841); conditions: Compound concentration 1000.0 nM
[14] = target: Tyrosine-protein kinase HCK (Homo sapiens) (UniProt P08631); conditions: Compound concentration 1000.0 nM
[15] = target: Inhibitor of nuclear factor kappa-B kinase subunit epsilon (Homo sapiens) (UniProt Q14164); conditions: Compound concentration 1000.0 nM
[16] = target: Interleukin-1 receptor-associated kinase 1 (Homo sapiens) (UniProt P51617); conditions: Compound concentration 1000.0 nM
[17] = target: Interleukin-1 receptor-associated kinase 3 (Homo sapiens) (UniProt Q9Y616); conditions: Compound concentration 1000.0 nM
[18] = target: Serine/threonine-protein kinase LATS2 (Homo sapiens) (UniProt Q9NRM7); conditions: Compound concentration 1000.0 nM
[19] = target: Serine/threonine-protein kinase STK11 (Homo sapiens) (UniProt Q15831); conditions: Compound concentration 1000.0 nM
[20] = target: Dual specificity mitogen-activated protein kinase kinase 2 (Homo sapiens) (UniProt P36507); conditions: Compound concentration 1000.0 nM
[21] = target: Serine/threonine-protein kinase MRCK beta (Homo sapiens) (UniProt Q9Y5S2); conditions: Compound concentration 1000.0 nM
[22] = target: Serine/threonine-protein kinase 3 (Homo sapiens) (UniProt Q13188); conditions: Compound concentration 1000.0 nM
[23] = target: Serine/threonine-protein kinase 24 (Homo sapiens) (UniProt Q9Y6E0); conditions: Compound concentration 1000.0 nM
[24] = target: Serine/threonine-protein kinase Nek1 (Homo sapiens) (UniProt Q96PY6); conditions: Compound concentration 1000.0 nM
[25] = target: Serine/threonine-protein kinase Nek11 (Homo sapiens) (UniProt Q8NG66); conditions: Compound concentration 1000.0 nM
[26] = target: Cyclin-dependent kinase 2 homolog (Plasmodium falciparum (isolate 3D7)) (UniProt P61075); conditions: Compound concentration 1000.0 nM
[27] = target: Phosphorylase b kinase gamma catalytic chain, skeletal muscle/heart isoform (Homo sapiens) (UniProt Q16816); conditions: Compound concentration 1000.0 nM
[28] = target: Phosphorylase b kinase regulatory subunit alpha, liver isoform (Homo sapiens) (UniProt P46019); conditions: Compound concentration 1000.0 nM
[29] = target: Phosphatidylinositol 4,5-bisphosphate 3-kinase catalytic subunit alpha isoform (Homo sapiens) (UniProt P42336); conditions: Compound concentration 1000.0 nM
[30] = tested on: Phosphatidylinositol 4,5-bisphosphate 3-kinase catalytic subunit alpha isoform (Homo sapiens), P42336 [H1047Y]; conditions: Compound concentration 1000.0 nM
[31] = target: Dual serine/threonine and tyrosine protein kinase (Homo sapiens) (UniProt Q6XUX3); conditions: Compound concentration 1000.0 nM
[32] = target: Mitogen-activated protein kinase kinase kinase 7 (Homo sapiens) (UniProt O43318); conditions: Compound concentration 1000.0 nM
[33] = target: Serine/threonine-protein kinase TNNI3K (Homo sapiens) (UniProt Q59H18); conditions: Compound concentration 1000.0 nM
[34] = target: Tyrosine-protein kinase TXK (Homo sapiens) (UniProt P42681); conditions: Compound concentration 1000.0 nM
[35] = target: Phosphatidylinositol 3-kinase catalytic subunit type 3 (Homo sapiens) (UniProt Q8NEB9); conditions: Compound concentration 1000.0 nM
[36] = target: Wee1-like protein kinase (Homo sapiens) (UniProt P30291); conditions: Compound concentration 1000.0 nM
[37] = target: T1, Alpha-1A adrenergic receptor (Homo sapiens) (UniProt P35348); conditions: Compound concentration 10.0 uM
T1 sequence (whole entry): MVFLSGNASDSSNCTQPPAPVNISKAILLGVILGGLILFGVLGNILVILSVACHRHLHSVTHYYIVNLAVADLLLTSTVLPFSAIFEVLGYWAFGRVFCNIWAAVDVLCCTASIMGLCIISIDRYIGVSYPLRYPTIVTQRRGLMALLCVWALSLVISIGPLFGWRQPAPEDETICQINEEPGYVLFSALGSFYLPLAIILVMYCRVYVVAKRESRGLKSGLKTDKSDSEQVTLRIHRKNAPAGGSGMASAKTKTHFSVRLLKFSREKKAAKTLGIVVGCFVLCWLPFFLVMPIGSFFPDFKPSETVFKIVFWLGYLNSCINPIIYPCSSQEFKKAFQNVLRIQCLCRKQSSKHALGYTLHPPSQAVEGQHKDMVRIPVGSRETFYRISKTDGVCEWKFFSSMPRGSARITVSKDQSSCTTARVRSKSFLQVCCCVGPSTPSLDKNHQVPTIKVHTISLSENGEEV

[38] = target: Sigma intracellular receptor 2 (Homo sapiens, UniProt Q5BJF2); conditions: Compound concentration 10.0 uM

Chain of Tyrosine-protein kinase TXK (Homo sapiens) (P42681 whole entry): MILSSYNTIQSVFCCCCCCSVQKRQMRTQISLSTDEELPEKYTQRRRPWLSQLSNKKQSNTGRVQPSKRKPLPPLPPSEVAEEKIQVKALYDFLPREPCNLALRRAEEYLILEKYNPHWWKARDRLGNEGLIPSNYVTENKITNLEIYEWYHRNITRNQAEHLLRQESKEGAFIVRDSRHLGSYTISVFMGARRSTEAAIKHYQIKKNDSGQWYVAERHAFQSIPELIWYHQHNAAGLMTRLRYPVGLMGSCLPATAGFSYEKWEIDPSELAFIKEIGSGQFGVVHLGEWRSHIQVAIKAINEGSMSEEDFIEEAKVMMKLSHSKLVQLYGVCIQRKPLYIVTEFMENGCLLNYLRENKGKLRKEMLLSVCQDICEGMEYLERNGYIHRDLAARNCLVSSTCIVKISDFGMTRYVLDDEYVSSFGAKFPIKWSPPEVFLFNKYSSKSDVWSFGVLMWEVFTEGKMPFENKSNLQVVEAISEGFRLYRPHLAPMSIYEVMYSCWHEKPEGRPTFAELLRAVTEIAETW
Chain of Wee1-like protein kinase (Homo sapiens) (P30291 whole entry, looked up): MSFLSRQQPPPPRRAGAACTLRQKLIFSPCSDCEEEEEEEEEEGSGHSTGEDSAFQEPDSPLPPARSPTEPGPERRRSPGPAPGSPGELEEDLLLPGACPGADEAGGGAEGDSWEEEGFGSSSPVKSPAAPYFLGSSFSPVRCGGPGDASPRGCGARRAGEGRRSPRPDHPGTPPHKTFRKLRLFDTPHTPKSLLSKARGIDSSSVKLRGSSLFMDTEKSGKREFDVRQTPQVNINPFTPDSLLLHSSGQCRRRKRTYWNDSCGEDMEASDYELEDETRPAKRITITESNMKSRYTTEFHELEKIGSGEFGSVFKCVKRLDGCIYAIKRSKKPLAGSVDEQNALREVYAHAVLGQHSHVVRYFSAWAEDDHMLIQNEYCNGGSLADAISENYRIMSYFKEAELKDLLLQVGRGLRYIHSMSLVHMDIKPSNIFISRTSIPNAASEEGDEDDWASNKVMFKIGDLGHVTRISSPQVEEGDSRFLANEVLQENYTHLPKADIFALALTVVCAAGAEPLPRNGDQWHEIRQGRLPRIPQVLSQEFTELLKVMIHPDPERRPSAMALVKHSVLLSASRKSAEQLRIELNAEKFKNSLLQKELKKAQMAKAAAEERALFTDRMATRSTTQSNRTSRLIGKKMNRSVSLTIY
Chain of Serine/threonine-protein kinase 3 (Homo sapiens) (Q13188 whole entry): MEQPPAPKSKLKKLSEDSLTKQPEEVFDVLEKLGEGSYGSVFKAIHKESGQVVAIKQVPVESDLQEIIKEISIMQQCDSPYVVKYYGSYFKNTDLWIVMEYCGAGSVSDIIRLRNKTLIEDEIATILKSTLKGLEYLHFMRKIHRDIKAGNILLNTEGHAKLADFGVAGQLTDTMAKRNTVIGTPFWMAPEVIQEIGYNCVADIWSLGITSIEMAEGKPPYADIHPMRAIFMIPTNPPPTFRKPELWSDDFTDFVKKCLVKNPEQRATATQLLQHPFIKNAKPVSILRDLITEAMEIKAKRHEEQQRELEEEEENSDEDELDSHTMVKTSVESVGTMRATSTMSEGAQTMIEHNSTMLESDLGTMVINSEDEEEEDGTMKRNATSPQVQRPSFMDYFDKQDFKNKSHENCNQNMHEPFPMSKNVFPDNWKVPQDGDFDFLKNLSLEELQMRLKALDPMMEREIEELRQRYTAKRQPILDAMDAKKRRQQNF
Chain of Cyclin-dependent kinase 4 (Homo sapiens) (P11802 whole entry): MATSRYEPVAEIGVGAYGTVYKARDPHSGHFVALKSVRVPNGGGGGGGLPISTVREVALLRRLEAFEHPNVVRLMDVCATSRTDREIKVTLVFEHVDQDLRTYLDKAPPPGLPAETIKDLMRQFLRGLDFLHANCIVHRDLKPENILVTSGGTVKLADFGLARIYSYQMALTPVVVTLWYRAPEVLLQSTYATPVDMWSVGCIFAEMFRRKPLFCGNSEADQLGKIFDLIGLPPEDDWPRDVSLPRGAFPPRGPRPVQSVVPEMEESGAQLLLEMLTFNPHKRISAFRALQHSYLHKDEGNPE
Chain of Glycogen synthase kinase-3 beta (Homo sapiens) (P49841 whole entry, looked up): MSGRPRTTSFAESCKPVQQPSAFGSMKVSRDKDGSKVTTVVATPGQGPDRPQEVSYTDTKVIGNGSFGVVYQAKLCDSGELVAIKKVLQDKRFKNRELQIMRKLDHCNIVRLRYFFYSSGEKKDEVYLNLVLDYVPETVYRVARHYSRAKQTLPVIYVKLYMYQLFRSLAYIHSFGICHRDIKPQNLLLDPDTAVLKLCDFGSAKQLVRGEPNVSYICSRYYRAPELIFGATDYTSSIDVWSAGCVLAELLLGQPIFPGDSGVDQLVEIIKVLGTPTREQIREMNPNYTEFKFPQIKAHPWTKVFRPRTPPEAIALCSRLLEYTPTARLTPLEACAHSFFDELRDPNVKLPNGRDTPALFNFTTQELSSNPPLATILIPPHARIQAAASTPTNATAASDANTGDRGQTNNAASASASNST
Chain of Phosphorylase b kinase regulatory subunit alpha, liver isoform (Homo sapiens) (P46019 whole entry, canonical isoform): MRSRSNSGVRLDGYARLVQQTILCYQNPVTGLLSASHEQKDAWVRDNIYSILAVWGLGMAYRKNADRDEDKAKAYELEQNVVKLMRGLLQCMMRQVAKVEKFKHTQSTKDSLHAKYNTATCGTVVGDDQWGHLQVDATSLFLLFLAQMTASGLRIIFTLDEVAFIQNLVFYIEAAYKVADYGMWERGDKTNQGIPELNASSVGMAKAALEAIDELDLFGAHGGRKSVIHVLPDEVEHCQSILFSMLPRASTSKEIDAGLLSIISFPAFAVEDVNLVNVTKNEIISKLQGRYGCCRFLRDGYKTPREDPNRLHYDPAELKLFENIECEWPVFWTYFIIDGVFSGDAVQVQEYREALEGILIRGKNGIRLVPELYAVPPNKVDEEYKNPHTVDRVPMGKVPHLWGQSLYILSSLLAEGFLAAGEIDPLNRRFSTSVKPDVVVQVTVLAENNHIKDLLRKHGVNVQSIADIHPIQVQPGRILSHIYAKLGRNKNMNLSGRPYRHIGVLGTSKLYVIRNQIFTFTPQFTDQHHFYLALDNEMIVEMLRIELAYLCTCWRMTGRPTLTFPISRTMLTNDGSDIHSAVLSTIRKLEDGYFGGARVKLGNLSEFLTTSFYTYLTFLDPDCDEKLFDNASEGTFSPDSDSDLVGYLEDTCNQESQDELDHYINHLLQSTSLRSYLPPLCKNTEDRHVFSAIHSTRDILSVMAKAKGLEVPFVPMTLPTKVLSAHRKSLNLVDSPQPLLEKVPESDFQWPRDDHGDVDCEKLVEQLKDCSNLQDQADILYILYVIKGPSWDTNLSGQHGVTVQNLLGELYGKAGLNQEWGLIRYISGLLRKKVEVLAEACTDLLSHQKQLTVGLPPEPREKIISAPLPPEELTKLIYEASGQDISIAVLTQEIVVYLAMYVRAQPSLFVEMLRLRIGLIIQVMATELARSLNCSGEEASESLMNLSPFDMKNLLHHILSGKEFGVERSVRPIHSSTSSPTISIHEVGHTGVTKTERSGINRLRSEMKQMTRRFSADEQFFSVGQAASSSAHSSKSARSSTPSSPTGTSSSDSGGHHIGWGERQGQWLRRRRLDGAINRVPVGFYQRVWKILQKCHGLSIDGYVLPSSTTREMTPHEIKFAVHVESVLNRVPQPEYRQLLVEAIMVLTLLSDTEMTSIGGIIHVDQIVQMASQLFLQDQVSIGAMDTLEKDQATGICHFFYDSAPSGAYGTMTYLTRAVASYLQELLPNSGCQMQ
Chain of Mitogen-activated protein kinase kinase kinase 7 (Homo sapiens) (O43318 whole entry): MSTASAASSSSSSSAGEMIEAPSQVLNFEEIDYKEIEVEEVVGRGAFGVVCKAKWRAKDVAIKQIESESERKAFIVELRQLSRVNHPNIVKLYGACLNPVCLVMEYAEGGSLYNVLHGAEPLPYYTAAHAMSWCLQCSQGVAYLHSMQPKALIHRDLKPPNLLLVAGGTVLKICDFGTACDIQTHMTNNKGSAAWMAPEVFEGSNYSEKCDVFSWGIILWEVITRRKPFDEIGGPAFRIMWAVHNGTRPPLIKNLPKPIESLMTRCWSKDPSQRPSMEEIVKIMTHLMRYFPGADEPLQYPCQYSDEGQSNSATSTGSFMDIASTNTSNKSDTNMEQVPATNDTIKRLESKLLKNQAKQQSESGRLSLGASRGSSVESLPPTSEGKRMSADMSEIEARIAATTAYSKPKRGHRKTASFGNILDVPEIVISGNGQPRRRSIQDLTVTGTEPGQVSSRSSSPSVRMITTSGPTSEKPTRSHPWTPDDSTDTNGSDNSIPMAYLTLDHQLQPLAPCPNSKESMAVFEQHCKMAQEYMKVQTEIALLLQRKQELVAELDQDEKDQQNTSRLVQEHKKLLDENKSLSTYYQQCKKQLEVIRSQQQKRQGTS
Chain of Dual specificity tyrosine-phosphorylation-regulated kinase 1B (Homo sapiens) (Q9Y463 whole entry, looked up): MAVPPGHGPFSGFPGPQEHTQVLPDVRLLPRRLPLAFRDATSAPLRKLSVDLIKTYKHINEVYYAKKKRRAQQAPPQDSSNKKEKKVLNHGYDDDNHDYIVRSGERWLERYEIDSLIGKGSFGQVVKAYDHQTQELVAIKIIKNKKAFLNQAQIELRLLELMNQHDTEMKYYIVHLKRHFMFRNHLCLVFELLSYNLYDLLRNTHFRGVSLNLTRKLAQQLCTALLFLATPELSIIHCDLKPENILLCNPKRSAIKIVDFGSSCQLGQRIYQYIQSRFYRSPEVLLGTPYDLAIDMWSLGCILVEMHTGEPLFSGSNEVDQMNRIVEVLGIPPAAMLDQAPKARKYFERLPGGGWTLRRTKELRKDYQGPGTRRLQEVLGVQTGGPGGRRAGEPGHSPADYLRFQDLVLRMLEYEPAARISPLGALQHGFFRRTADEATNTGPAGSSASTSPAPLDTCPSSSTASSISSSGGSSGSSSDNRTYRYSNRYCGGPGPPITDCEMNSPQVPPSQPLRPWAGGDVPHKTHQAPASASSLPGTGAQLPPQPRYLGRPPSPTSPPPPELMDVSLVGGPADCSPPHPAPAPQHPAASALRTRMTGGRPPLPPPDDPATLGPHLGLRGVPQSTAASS

SMILES | residual activity [1] | residual activity [2] | residual activity [3] | residual activity [4] | residual activity [5] | residual activity [6] | residual activity [7] | residual activity [8] | residual activity [9] | residual activity [10] | residual activity [11] | residual activity [12] | residual activity [13] | residual activity [14] | residual activity [15] | residual activity [16] | residual activity [17] | residual activity [18] | residual activity [19] | residual activity [20] | other results
O=C(Nc1ccc(Oc2ccc(F)cc2)cc1)N1CCc2ncccc2[C@H]1c1ccc(F)cc1 [BAY-897] | 100% | 96% | 96% | 99% | 100% | 93% | 88% | 73% | 92% | 100% | 83% | 100% | 100% | 100% | 89% | 88% | 100% | 100% | 61% | 100% | residual activity [21]: 88%; residual activity [22]: 94%; residual activity [23]: 93%; residual activity [24]: 100%; residual activity [25]: 100%; residual activity [26]: 87%; residual activity [27]: 100%; residual activity [28]: 100%; residual activity [29]: 83%; residual activity [30]: 100%; residual activity [31]: 100%; residual activity [32]: 89%; residual activity [33]: 100%; residual activity [34]: 100%; residual activity [35]: 92%; residual activity [36]: 100%; inhibition [37]: 16.2%; inhibition [38]: 80.8%
O=C(Nc1cnc(Oc2ccc(F)cc2)nc1)N1CCc2ncccc2[C@@H]1c1ccc(F)cc1 [BAY-899] | 94% | 100% | 100% | 93% | 91% | 98% | 78% | 76% | 88% | 100% | 89% | 90% | 100% | 96% | 98% | 88% | 100% | 99% | 75% | 93% | residual activity [21]: 73%; residual activity [22]: 100%; residual activity [23]: 77%; residual activity [24]: 84%; residual activity [25]: 100%; residual activity [26]: 100%; residual activity [27]: 100%; residual activity [28]: 96%; residual activity [29]: 100%; residual activity [30]: 100%; residual activity [31]: 100%; residual activity [32]: 90%; residual activity [33]: 100%; residual activity [34]: 87%; residual activity [35]: 100%; residual activity [36]: 85%; inhibition [37]: -3.5%; inhibition [38]: 53.2%
